Assays:
NRF2 = experiment: NRF2/ARE Luciferase Reporter Assay (HEK293 stable cell line); assay type: cell-based, human; details: NRF2-dependent luciferase activity, cells treated for 6 hours; read-out: EC50 for stimulating NRF2
Description: NRF2/ARE Luciferase Reporter Assay NRF2 activity was monitored with a reporter cell line in which changes in NRF2 activity are coupled to the expression of firefly luciferase (NRF2/ARE Luciferase Reporter HEK293 Stable Cell Line). Luciferase activity was quantified with the Luciferase Assay System as per the manufacturer's instructions. Briefly, cells were plated at 125,000 cells/well in a 24-well plate. The following day, cells were treated with either vehicle or varying doses of sulforaphane, exemestane, or JQ-1 for 6 hours. Cells were then lysed in passive lysis buffer (Promega E1941) supplemented with protease inhibitors (Sigma). Lysates were then cleared at 16,000 g for 15 minutes at 4° C. 15 μL of each lysate was mixed with 5 μL of luciferase assay substrate (Promega). Total light was measured using a luminometer with a 10 second integration time with a delay of 2 seconds. Luciferase measurements were normalized to total protein and reported as normalized to the vehicle condition.

TRPA1 = biological target: T1, TRPA1 (Homo sapiens, UniProt O75762); experiment: Calcium imaging of HEK293 cells transiently expressing WT TRPA1; assay type: cell-based; details: for calcium response of cells transfected with the vector backbone alone: 100 μM iodoacetamide, control vector; for calcium response of cells transfected with the vector backbone alone / calcium response of cells expressing WT TRPA1: 1 mM H2O2 or 100 μM 4-HNE; for EC50: concentration-Ca2+ response, HEK-293 cells transfected with WT TRPA1
T1 construct: expressed in transfected cells; host or cells: HEK293
Description: (§1) Calcium Imaging and Analysis Calcium imaging and analysis was performed as previously described (See Meixiong, J. et al. Elife 8, (2019)). Briefly, cells were imaged in calcium imaging buffer (CIB; 10 mM HEPES, 1.2 mM NaHCO3, 130 mM NaCl, 3 mM KCl, 2.5 mM CaCl2, 0.6 mM MgCl2, 20 mM glucose, and 20 mM sucrose at pH 7.4 and 290-300 mOsm). To monitor changes in intracellular [Ca^2+]([Ca^2+]i), cells were loaded with either 1 μM Fura 2-AM (HEK293 cells) or 1 μM Fluo 4-AM (trigeminal neurons) for 30 min in the dark at 37° C. in CIB just prior to imaging. With Fura 2-AM, emission at 510 nm was monitored following excitation at both 340 nm and 380 nm. With Fluo 4-AM, emission at 520 nm was monitored following excitation at 488 nm. Cells were identified as positively responding if [Ca^2+]i rose by 15% compared to baseline. Damaged, detached, high-baseline, and motion-activated cells were excluded from analysis.
(§2) HEK293 cells were plated on poly-D-lysine-coated coverslips and transiently transfected with the vector backbone or constructs encoding WT or mutant TRPA1. Unless otherwise noted, cells were imaged for 30 s to establish a baseline before compounds were added. Vehicle was first applied for 30 s, after which 100 μM iodoacetamide, 1 mM H2O2, or 100 μM 4-HNE was applied. CSF from cases and controls was diluted into calcium imaging buffer 1:50 prior to each trial. 50 μM of the non-selective TRP channel inhibitor ruthenium red was applied at the end of every imaging trial.

[1] = biological target: T2, mutant TRPA1 (Cys621, Cys641, Cys665, Lys721) (Homo sapiens, UniProt O75762, C621S/C641S/C665S); experiment: Calcium imaging of HEK293 cells transiently expressing mutant TRPA1; assay type: cell-based; details: 100 μM iodoacetamide, 1 mM H2O2 or 100 μM 4-HNE
T2 construct: expressed in transfected cells; host or cells: HEK293
Description: as §1, §2
(§3) ROS directly activated TRPA1 by covalently bonding or modifying a network of cysteine and lysine residues within the channel. Extensive work by several groups has pinpointed a collection of key residues in TRPA1, including Cys421, Cys621, Cys641, Cys665, and Lys721. To test which residues among these sense H2O2 and 4-HNE, each was mutated individually and in various combinations (FIGS. 7A and 7B). Triply mutating cysteines Cys621, Cys641, Cys665 to serine rendered TRPA1 insensitive to both iodoacetamide and H2O2 (FIGS. 2D-2E). […] These four residues position TRPA1 as both a key sensor and transducer of oxidative stress.

[2] = system: mutant TRPA1 (Cys621, Cys641, Cys665, Lys721); experiment: as above; assay type: cell-based; details: 100 μM 4-HNE
Description: as §1, §2, §3

[3] = system: constrictive mouse model of trigeminal neuralgia; experiment: Mechanical allodynia (Von Frey filament) after constriction of the maxillary nerve; assay type: in vivo; details: WT mice, vs vehicle
Description: (§4) Constriction of the Maxillary Nerve Constriction of the maxillary division of trigeminal nerve was performed as previously described (See Benedetti, A., et al., Biochimica Et Biophysica Acta Bba—Lipids Lipid Metabolism 620, 281-296 (1980) and Vos, B., et al J Neurosci 14, 2708-2723 (1994)). The procedure was performed under direct visualization and control with a surgical microscope. Mice were first anesthetized with ketamine (100 mg/kg, i.p.) and xylazine (12.5 mg/kg, i.p.) and monitored by pinching the skin between the toes with forceps and monitoring for withdrawal. Mice were restrained with adhesive tape to a sterilized polystyrene board. Upon sufficient anesthesia, the scalp was shaved and an anterior to posterior skin incision was made at the midline to expose the nasal and maxillary bones. The maxillary nerve was exposed and carefully dissected free from the surrounding connective tissue. The distal end of the maxillary nerve was then loosely constricted using 8-0 silk sutures as a ligature. The sutures were tied using a slip knot followed by a normal knot, after which any remaining suture was cut free. The incision was then closed with a 4-0 silk suture. In the sham procedure, the left maxillary nerve was exposed but not constricted. Mice were monitored and rehydrated until fully recovered from anesthesia.
(§5) Pharmacologic Treatments Mice were dosed with either sulforaphane (10 mg/kg, i.p.), exemestane (10 mg/kg, i.p.), letrozole (10 mg/kg, i.p.), (+)-JQ-1 (40 mg/kg, i.p.), (−)-JQ-1 (40 mg/kg, i.p.), or ascorbate (100 mg/kg, i.p.) as indicated below. Mice were first dosed daily for two days before surgery and again daily just after behavior testing. For local exemestane treatment, exemestane (5 μL, 25 μg total) was applied directly to the maxillary nerve. Mice received a single dose during surgery. Mice were dosed with AM-0902 (30 mg/kg, p.o.). Mice were treated with AM-0902 were dosed 30 min prior to behavior testing. Mice were dosed with tamoxifen (75 mg/kg, i.p.). Mice were dosed once every 24 hrs over 5 consecutive days. Behavioral and molecular tests were only performed 7 or more days after the final tamoxifen injection.
Mechanical Allodynia Mechanical allodynia was assessed in C57BL/6J, TRPA1^+/+, TRPA1^−/−, Keap1(f/f), and Keap1(f/f/CMV-CreER mice using a Von Frey filament as previously outlined (See Benedetti, A., et al., Biochimica Et Biophysica Acta Bba—Lipids Lipid Metabolism 620, 281-296 (1980) and Vos, B., et al J Neurosci 14, 2708-2723 (1994)). Animals were placed individually in transparent plastic boxes and allowed to acclimate to the environment for at least 30 min before testing. After habituation, a 0.04 g force Von Frey filament was used to stimulate the territory innervated by the maxillary nerve, including the vibrissal skin pad. Each mouse's response to the filament was scored from 0-4 on the scale below. Each mouse was scored ten times per day. Changes in mechanical allodynia were considered relative to sham- or vehicle-treated animal controls. Behavior was assessed concomitantly or in a blocked manner with consideration for both genotype and treatment. • 0—no response • 1—non-defensive response to the stimulus (e.g., mouse non-defensively explores filament) • 2—withdrawal response (e.g., mouse turns head away from filament) • 3—escape/attack response (e.g., mouse moves body away from filament and assumes crouching position against the box wall; actively attacks filament by biting and/or grabbing) • 4—asymmetric face grooming (e.g., mouse wipes stimulated facial area in uninterrupted series of at least three face-wash strokes)

[4] = system: constrictive mouse model of trigeminal neuralgia; experiment: Cold allodynia (ice-cold acetone) after constriction of the maxillary nerve; assay type: in vivo; details: WT mice, vs vehicle
Description: as §4, §5
Cold Allodynia Cold allodynia was assessed in C57BL/6J, TRPA1^+/+, TRPA1^−/−, Keap1(f/f), and Keap1(f/f)/CMV-CreER mice using ice-cold acetone as previously outlined (See Yoon, C., et al., Pain 59, 369-376 (1994)). Animals were placed individually in transparent plastic boxes and allowed to acclimatize to the environment for at least 30 min before testing. After habituation, 20 μl of cold acetone was applied to the ligated vibrissal pad skin surface. Cold allodynia was measured as the average time spent wiping the region in a 60 s period, with a maximum of 5 seconds between bouts of wiping. Allodynia was measured three times with 10 min between intervals. Changes in cold allodynia were considered relative to sham- or vehicle-treated animal controls. Behavior was assessed concomitantly or in a blocked manner with consideration for both genotype and treatment.

[5] = system: constrictive mouse model of trigeminal neuralgia; experiment: Mechanical allodynia (Von Frey filament) after constriction of the maxillary nerve; assay type: in vivo; details: NRF2−/− mice; AM-0902 30 mg/kg, p.o., 30 min prior to behavior testing
[6] = system: constrictive mouse model of trigeminal neuralgia; experiment: Cold allodynia (ice-cold acetone) after constriction of the maxillary nerve; assay type: in vivo; details: NRF2−/− mice; AM-0902 30 mg/kg, p.o., 30 min prior to behavior testing
[7] = AM-0902 30 mg/kg, p.o., 30 min prior to behavior testing
[8] = i.p. daily for two days before surgery and daily after behavior testing, sulforaphane, exemestane, letrozole 10 mg/kg, JQ-1 40 mg/kg, ascorbate 100 mg/kg

T2 sequence (O75762 whole entry C621S/C641S/C665S): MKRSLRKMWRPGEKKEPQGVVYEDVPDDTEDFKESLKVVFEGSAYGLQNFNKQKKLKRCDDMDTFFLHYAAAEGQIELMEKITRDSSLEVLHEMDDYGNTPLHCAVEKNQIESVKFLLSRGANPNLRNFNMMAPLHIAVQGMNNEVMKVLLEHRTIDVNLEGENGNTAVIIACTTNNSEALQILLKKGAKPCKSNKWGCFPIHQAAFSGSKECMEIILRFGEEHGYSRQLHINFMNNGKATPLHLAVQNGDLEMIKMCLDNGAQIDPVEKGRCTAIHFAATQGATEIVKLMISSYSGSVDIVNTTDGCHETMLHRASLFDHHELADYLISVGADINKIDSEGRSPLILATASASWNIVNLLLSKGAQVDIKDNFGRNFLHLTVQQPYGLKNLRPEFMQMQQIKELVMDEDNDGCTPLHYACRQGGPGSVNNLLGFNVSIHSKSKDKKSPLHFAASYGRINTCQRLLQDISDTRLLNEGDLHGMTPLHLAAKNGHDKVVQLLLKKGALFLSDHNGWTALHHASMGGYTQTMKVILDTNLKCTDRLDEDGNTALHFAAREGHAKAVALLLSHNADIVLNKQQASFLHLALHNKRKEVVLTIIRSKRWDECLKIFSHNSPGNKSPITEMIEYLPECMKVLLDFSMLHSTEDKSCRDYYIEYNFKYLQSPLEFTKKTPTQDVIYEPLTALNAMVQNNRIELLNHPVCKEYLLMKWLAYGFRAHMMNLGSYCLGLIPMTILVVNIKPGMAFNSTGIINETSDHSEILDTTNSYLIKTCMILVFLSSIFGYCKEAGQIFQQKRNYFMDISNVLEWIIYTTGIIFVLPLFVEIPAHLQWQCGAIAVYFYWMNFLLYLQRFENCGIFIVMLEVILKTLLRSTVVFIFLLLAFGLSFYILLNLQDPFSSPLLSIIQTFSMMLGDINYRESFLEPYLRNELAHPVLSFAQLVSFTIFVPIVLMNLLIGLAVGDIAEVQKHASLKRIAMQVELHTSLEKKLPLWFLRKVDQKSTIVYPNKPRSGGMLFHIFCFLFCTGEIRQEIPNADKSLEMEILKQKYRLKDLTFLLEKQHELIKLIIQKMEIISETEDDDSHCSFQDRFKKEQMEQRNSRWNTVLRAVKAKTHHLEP
T1 sequence (O75762 whole entry): as the sequence (O75762 whole entry C621S/C641S/C665S) above, with S621C, S641C, S665C counted along it

SMILES | EC50 (NRF2) [µM] | calcium response of cells transfected with the vector backbone alone (TRPA1) | calcium response of cells expressing WT TRPA1 (TRPA1) | EC50 (TRPA1) [µM] | sensitivity of triple mutant TRPA1 (Cys621, Cys641, Cys665 to serine) [1] | also measured
CCCCCC(O)/C=C/C=O (stereo not shown) [4-HNE, 4-hydroxynonenal] | 12 | Neither iodoacetamide, H2O2, nor 4-HNE elicited a calcium response | activated cells expressing TRPA1 | 48 | still activated | sensitivity of triple cysteine mutant TRPA1 after also mutating Lys721 [2]: no longer sensitive
Cn1cnc2ncn(Cc3nc(CCc4ccc(Cl)cc4)no3)c(=O)c21 [AM-0902, 1-({3-(2-(4-chlorophenyl)ethyl]-1,2,4-oxadiazol-5-yl}methyl)-7-methylpurin-6-one] | – | – | – | – | – | mechanical allodynia [3, 7]: reduced; cold allodynia [4, 7]: reduced; mechanical allodynia [5]: lowered; cold allodynia [6]: lowered
OO [H2O2] | 14 | Neither iodoacetamide, H2O2, nor 4-HNE elicited a calcium response | activated cells expressing TRPA1 | 133 | insensitive | –
NC(=O)CI [iodoacetamide] | – | Neither iodoacetamide, H2O2, nor 4-HNE elicited a calcium response | – | – | insensitive | –
N#Cc1ccc(C(c2ccc(C#N)cc2)n2cncn2)cc1 [letrozole] | – | – | – | – | – | mechanical allodynia (sensitivity to crude touch) [3, 8]: neither letrozole nor (−)-JQ-1 did; cold allodynia (ice-cold acetone) [4, 8]: neither letrozole nor (−)-JQ-1 did
